# Measurements: the supplement of paper PMC11208160
# Test: recombinant barcode read abundance after kanamycin selection (control-corrected) (log10(CPM+1)); higher = more efficient recombination; sequences stand for … in AGTGCAGAGAAAATCGGCCAGTTTTCTCTGCCTGCAGTCCGCATGCCGT…AGATTTATGCAGCGGACTGCCTTTCTCCCAAAGTGATAAACCGGACAGTATCATGGACCGGTTTTCCCGGTAATCCGTATTTGCAAGGTTGGTTTCACT; site = the 11-nt target
# Outline: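 Pooled oligos, each joining a target to an IS621 bridge RNA target-binding loop, were cloned and co-electroporated with a donor plasmid into E. coli. Selective plates carried chloramphenicol/ampicillin/kanamycin and 0.1 mM IPTG, while chloramphenicol/ampicillin LB agar served as control, with two replicates of each. Recombination efficiency rests on averaged, control-corrected counts per million of barcodes at recombinant junctions, shown as log10(CPM+1).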
# 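Further: IS621 recombinase and bridge RNA in Escherichia coli cells.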
row,Sequence,recombinant barcode read abundance (log10)
1,AGTAAGACTTGGGTTCTAACCTGTTGCCT (site AGTAAGACTAC),0.16
2,GAAACTCCTTGGGTTCTAACCTGTTGCCT (site GAAAATCCTAG),0.13
3,GCCTGAGCTTGGGTTCTAACCTGTTGCCT (site GCTTGAGCTAG),0
4,GGGATCCCTTGGGTTCTAACCTGTTGCGG (site GGGATCCCTCC),2
5,CTCAATTCTTGGGTTCTAACCTGTTGCAT (site CTCTATTCTAT),0.148
6,CTGGCGCCTTGGGTTCTAACCTGTTGCAT (site CTGGCGCCTAT),0.908
7,CCGTCACCTTGGGTTCTAACCTGTTGCCT (site TCGTCACCTAG),0.0881
8,TGAAAGCCTTGGGTTCTAACCTGTTGCTT (site TGGAAGTCTAA),0.0888
9,TAGTTCACTTGGGTTCTAACCTGTTGCAT (site TAGTTCACTAT),0.382
10,TCTTATACTTGGGTTCTAACCTGTTGCAT (site TCTTATACTAC),0.0107
11,GGTCGAGCTTGGGTTCTAACCTGTTGCCT (site GGTCGTGCTAG),0.671
12,CAGGTACCTTGGGTTCTAACCTGTTGCAG (site CAGGTACCTAT),0.368
13,GGTACTCCTTGGGTTCTAACCTGTTGCGT (site GGTACGCCTAC),0.18
14,AAGACAGCTTGGGTTCTAACCTGTTGCCT (site AAGAGAGCTAG),0.0524
15,CTCGGATCTTGGGTTCTAACCTGTTGCTC (site CTCGGATCTGA),0.991
16,CTCTAAACTTGGGTTCTAACCTGTTGCCA (site CTCTAGACTTG),0.108
17,TACCTATCTTGGGTTCTAACCTGTTGCCT (site TACCTATCTAG),1.11
18,TTAGTTCCTTGGGTTCTAACCTGTTGCCT (site TTAGTACCTAG),0.146
19,ACTAGGACTTGGGTTCTAACCTGTTGCGT (site ACTAGGACTGC),0.248
20,TATTATCCTTGGGTTCTAACCTGTTGCCT (site TATTAACCTAG),0.341
21,AGGATCCCTTGGGTTCTAACCTGTTGCAT (site AGGATCCCTCT),1.07
22,TAAGTGTCTTGGGTTCTAACCTGTTGCCT (site TAGGTGTCTAG),0.314

row,Sequence,recombinant barcode read abundance (log10)
1,TGCTGTCCTTGGGTTCTAACCTGTTGCCT (site TGCTGTCCTAG),0.111
2,ATTAACTCTTGGGTTCTAACCTGTTGCCT (site ATTAACTCTAG),0.944
3,GCCATGACTTGGGTTCTAACCTGTTGCCT (site GCCATCACTAG),0.0872
4,GAAGCCGCTTGGGTTCTAACCTGTTGCCT (site GAAGTCGCTAG),0.302
5,ACAGAGGCTTGGGTTCTAACCTGTTGCCG (site ACAGAGGCTCG),1.12
6,CGGAAGCCTTGGGTTCTAACCTGTTGCCT (site CGGAAGGCTAG),0.0821
7,TCGCTAGCTTGGGTTCTAACCTGTTGCCT (site GCGCTAGCTAG),0.0173
8,TGAGATTCTTGGGTTCTAACCTGTTGCAT (site TGAGATTCTAT),1.55
9,GTGTCAGCTTGGGTTCTAACCTGTTGCCT (site GTGTCACCTAG),0.383
10,GGCAAGACTTGGGTTCTAACCTGTTGCCT (site GGTAAGACTAG),0.0715
11,CTCCTAGCTTGGGTTCTAACCTGTTGCTT (site CTCCGAGCTTA),0.00954
12,ACTGATTCTTGGGTTCTAACCTGTTGCCT (site ACTGATTCTAG),1.34
13,GAGACATCTTGGGTTCTAACCTGTTGCCT (site GAGATATCTAG),0.206
14,CATAGACCTTGGGTTCTAACCTGTTGCCT (site GATAGACCTAG),0.00901
15,ATAAGGACTTGGGTTCTAACCTGTTGCTA (site ATACGGACTTA),0.111
16,GGCTGAGCTTGGGTTCTAACCTGTTGCCT (site GACTGAGCTAC),0.0838
17,ACCGGGACTTGGGTTCTAACCTGTTGCCT (site ACCGTGACTAG),0
18,AATACCTCTTGGGTTCTAACCTGTTGCCT (site AGTACCTCTAG),0.0751
19,TGGCTAGCTTGGGTTCTAACCTGTTGCCT (site TGCCTAGCTAG),0.0442
20,GAAACTCCTTGGGTTCTAACCTGTTGCCT (site GAAAGTCCTAG),0.235
21,GGTACTCCTTGGGTTCTAACCTGTTGCGT (site GGTACTCCTAC),0.913
22,AGGCATCCTTGGGTTCTAACCTGTTGCCT (site AAGCATCCTAG),0.32

row,Sequence,recombinant barcode read abundance (log10)
1,TCCGAGCCTTGGGTTCTAACCTGTTGCGT (site TCCGAGCCTAT),1.03
2,CTATGTGCTTGGGTTCTAACCTGTTGCTT (site CTATGTGCTAT),0.746
3,TCTGAAACTTGGGTTCTAACCTGTTGCTT (site GACACCTCTCG),0.0724
4,CTAACCTCTTGGGTTCTAACCTGTTGCTA (site CTAACCTCTGA),1.01
5,TCCCGAACTTGGGTTCTAACCTGTTGCCT (site TCCCGATCTAG),0.0125
6,AATGGATCTTGGGTTCTAACCTGTTGCCT (site AATGTATCTAG),0.0683
7,GGTATAACTTGGGTTCTAACCTGTTGCCA (site GGTATAACTTG),0.132
8,TACTAAGCTTGGGTTCTAACCTGTTGCCT (site TACTAAGCTAA),0
9,GCCTCGTCTTGGGTTCTAACCTGTTGCCT (site GCTTCGTCTAG),0.0462
10,GTCTCTCCTTGGGTTCTAACCTGTTGCCG (site GTGTCTCCTCG),0.0724
11,TTAGTGCCTTGGGTTCTAACCTGTTGCCT (site TTAGTCCCTAG),0.0383
12,TAAAATACTTGGGTTCTAACCTGTTGCCT (site TAGATTACTAG),0.272
13,CGTCCACCTTGGGTTCTAACCTGTTGCCT (site AGTCCACCTAG),0.198
14,GGTGGTCCTTGGGTTCTAACCTGTTGCCT (site GGTTGTCCTAG),0.178
15,CAGTCTGCTTGGGTTCTAACCTGTTGCCT (site CATTCTGCTAG),0.182
16,AAGTGCTCTTGGGTTCTAACCTGTTGCCT (site ACGTGCTCTAG),0.129
17,AATGGATCTTGGGTTCTAACCTGTTGCCT (site AATGCATCTAG),0.0416
18,GACGCCTCTTGGGTTCTAACCTGTTGCCT (site GACGCCTCTAG),0.47
19,CAGGACCCTTGGGTTCTAACCTGTTGCCT (site CAAGACCCTAG),1.93
20,ACCGAGACTTGGGTTCTAACCTGTTGCGG (site ACCGAGACTCC),2.7
21,AATCTAACTTGGGTTCTAACCTGTTGCCT (site GGCGCCTCTGC),0.538
22,CAAGGGCCTTGGGTTCTAACCTGTTGCCT (site CAAGGGCCTAG),0.701

row,Sequence,recombinant barcode read abundance (log10)
1,AGGTCGTCTTGGGTTCTAACCTGTTGCCT (site ATGTCGTCTAG),0.0512
2,GGATACACTTGGGTTCTAACCTGTTGCCT (site GGTTACACTAG),0.395
3,TACTTGCCTTGGGTTCTAACCTGTTGCCT (site TACTTGCCTAG),0.804
4,TCCACAACTTGGGTTCTAACCTGTTGCCT (site TCCACAACTAG),0.273
5,CTGTCTACTTGGGTTCTAACCTGTTGCCT (site CCGTCTACTAG),0.197
6,TACAAGGCTTGGGTTCTAACCTGTTGCGG (site TACAAGGCTCC),2.68
7,AGCCACCCTTGGGTTCTAACCTGTTGCCT (site AGCCACACTAG),0.201
8,TCCCGTCCTTGGGTTCTAACCTGTTGCCT (site TCCCGTCCTAG),0.636
9,TGTGCCTCTTGGGTTCTAACCTGTTGCCT (site TGTACCTCTAG),0.368
10,GGACGCACTTGGGTTCTAACCTGTTGCGG (site CCTAAGCCTAT),0.604
11,TGTAATACTTGGGTTCTAACCTGTTGCCT (site TGTAATACTAG),0.0354
12,TCCCATACTTGGGTTCTAACCTGTTGCCT (site TCCCATACTAG),0.493
13,GATACGCCTTGGGTTCTAACCTGTTGCCT (site GATACGTCTAG),0.139
14,TGGTATGCTTGGGTTCTAACCTGTTGCCT (site TGGTATGCTAG),1.39
15,GGTTACCCTTGGGTTCTAACCTGTTGCGG (site GGTCACCCTCC),1.62
16,CCGTCGACTTGGGTTCTAACCTGTTGCCT (site CCGTCGACTAG),0.197
17,TTCTGGGCTTGGGTTCTAACCTGTTGCCT (site TTCTGAGCTAG),0.172
18,TAGAAGGCTTGGGTTCTAACCTGTTGCAT (site TAGAAGGCTAC),0.0752
19,TGTAGTCCTTGGGTTCTAACCTGTTGCGT (site TGTAGTCCTAG),0.293
20,CTCGGATCTTGGGTTCTAACCTGTTGCTG (site CTCGGATCTTA),0.133
